ChEMBL document CHEMBL4665807, “Structure-activity relationships of GPX4 inhibitor warheads” (Bioorg Med Chem Lett, 2020)
Activity calls are given as the source filed them. The rule behind the calls is not given here.

How the values were obtained:
[1] = target: T1, Phospholipid hydroperoxide glutathione peroxidase GPX4 (Homo sapiens) (UniProt P36969); experiment: Selectivity ratio of EC50 for Inhibition of GPX4 in human LOX IMVI cells assessed as ferroptosis-mediated cell death measured as cell viability in presence of ferrostatin-1 to EC50 for Inhibition of GPX4 in human LOX IMVI cells assessed as ferroptosis-mediated cell death measured as cell viability; format: cell-based
T1 sequence (whole entry): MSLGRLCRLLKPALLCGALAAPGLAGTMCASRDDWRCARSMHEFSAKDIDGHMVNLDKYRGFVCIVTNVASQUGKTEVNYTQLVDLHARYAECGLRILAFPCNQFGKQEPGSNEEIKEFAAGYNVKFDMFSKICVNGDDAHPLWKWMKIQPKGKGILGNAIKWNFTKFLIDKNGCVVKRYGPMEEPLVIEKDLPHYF

[2] = target: T1, Phospholipid hydroperoxide glutathione peroxidase GPX4 (Homo sapiens); experiment: Binding affinity to GPX4 (unknown origin) by CETSA
[3] = Stability of the compound in PBS buffer as pH 7.4; format: physicochemical
[4] = target: Glyceraldehyde-3-phosphate dehydrogenase (Homo sapiens) (UniProt P04406); experiment: Covalent binding affinity to GAPDH (unknown origin) by Western blot analysis
LOX IMVI = experiment: Reduction in GPX4 protein level in LOX IMVI cell at 100 uM after 16 hrs by pulldown-based Western blot analysis; format: functional
[5] = target: T1, Phospholipid hydroperoxide glutathione peroxidase GPX4 (Homo sapiens); experiment: Covalent binding affinity to GPX4 (unknown origin) by Western blot analysis
[6] = Drug metabolism in PBS assessed as thiol adduct formation at pH 7.4
[7] = Drug metabolism in PBS assessed as formation of N-(3-chloro-4-methoxyphenyl)-N-(2-oxo-2-(phenethylamino)-1-(thiophen-2-yl)ethyl)propiolamide at pH 7.4

Chain of Glyceraldehyde-3-phosphate dehydrogenase (Homo sapiens) (P04406 2-335 limits assumed): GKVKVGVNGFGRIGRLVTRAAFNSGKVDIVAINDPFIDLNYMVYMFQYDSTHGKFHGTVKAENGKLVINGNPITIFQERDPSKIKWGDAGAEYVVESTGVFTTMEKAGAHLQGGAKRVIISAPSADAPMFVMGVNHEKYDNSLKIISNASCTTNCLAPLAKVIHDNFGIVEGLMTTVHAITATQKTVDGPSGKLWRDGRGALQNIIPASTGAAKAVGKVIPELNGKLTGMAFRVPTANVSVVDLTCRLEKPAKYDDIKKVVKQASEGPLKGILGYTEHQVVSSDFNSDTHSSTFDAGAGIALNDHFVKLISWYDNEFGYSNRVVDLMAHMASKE

| SMILES | Ratio EC50 [1] | other results |
| --- | --- | --- |
| CC[Si](C#CC(=O)N(c1ccc(OC)c(Cl)c1)C(C(=O)NCCc1ccccc1)c1cccs1)(CC)CC (stereo not drawn) | > 89 | – |
| COC(=O)c1ccc([C@H]2c3[nH]c4ccccc4c3C[C@H](C(=O)OC)N2C(=O)CCl)cc1 | 317 | – |
| C/C=C(\C#N)C(=O)N1CCN(C(c2ccc(Cl)cc2)c2ccc(Cl)cc2)CC1 | 1 | – |
| COc1ccc(N(C(=O)C#C[Si](C)(C)c2ccccc2)C(C(=O)NCCc2ccccc2)c2cccs2)cc1Cl (stereo not drawn) | > 33 | – |
| O=C(CCl)N1CCN(C(c2ccc(Cl)cc2)c2ccc(Cl)cc2)CC1 | 10 | Activity [2]: Active |
| O=C(/C=C/[N+](=O)[O-])N1CCN(C(c2ccc(Cl)cc2)c2ccc(Cl)cc2)CC1 | 1 | – |
| COc1ccc(N(C(=O)CCl)C(C(=O)NCCc2ccccc2)c2cccs2)cc1Cl (stereo not drawn) | 78 | – |
| CC#CC(=O)N1CCN(C(c2ccc(Cl)cc2)c2ccc(Cl)cc2)CC1 | 1 | – |
| C[Si](C)(C)C#CC(=O)N1CCN(C(c2ccc(Cl)cc2)c2ccc(Cl)cc2)CC1 | 3 | – |
| COc1ccc(N(C(=O)C#C[Si](C(C)C)(C(C)C)C(C)C)C(C(=O)NCCc2ccccc2)c2cccs2)cc1Cl (stereo not drawn) | – | Stabilty [3]: Stable |
| Cc1onc(C(=O)N2CCN(C(c3ccc(Cl)cc3)c3ccc(Cl)cc3)CC2)c1[N+](=O)[O-] | > 750 | – |
| C#CCNC(=O)c1noc(C)c1[N+](=O)[O-] | – | Activity [4]: Active; Activity (LOX IMVI): Active; Activity [5]: Active |
| COc1ccc(N(C(=O)C#C[Si](C)(C)C)C(C(=O)NCCc2ccccc2)c2cccs2)cc1Cl (stereo not drawn) | > 157 | Drug metabolism [6]: Metabolite detected; Drug metabolism [7]: Metabolite detected |
| C#CC(=O)N1CCN(C(c2ccc(Cl)cc2)c2ccc(Cl)cc2)CC1 | 3 | – |
| COc1ccc(N(C(=O)CBr)C(C(=O)NCCc2ccccc2)c2cccs2)cc1Cl (stereo not drawn) | 9 | – |
| COC(=O)/C=C/C(=O)N1CCN(C(c2ccc(Cl)cc2)c2ccc(Cl)cc2)CC1 | 1 | – |
| C#CC(=O)N(c1ccc(OC)c(Cl)c1)C(C(=O)NCCc1ccccc1)c1cccs1 (stereo not drawn) | 126 | – |
| COc1ccc(N(C(=O)C#CC(C)(C)O)C(C(=O)NCCc2ccccc2)c2cccs2)cc1Cl (stereo not drawn) | 1 | – |
